US20120003177A1 (priority 2008, published 2012)
Entries after “also recorded” stand apart in the source; their conditions may differ. Where two headings read alike, the source gives them in different places.

Assays:
[1] = system: SKOV-3 human ovarian cancer cell line; test: MTT cytotoxicity of polycurcumins to SKOV-3 cells (72 h treatment); details: for IC50: Homo sapiens
Description: The human ovarian carcinoma SKOV-3 cell line was purchased from American type culture collection (ATCC). Cells were cultured in RPMI 1640 medium supplemented with 10% fetal bovine serum (HyClone, Logan, Utah) and grown at 37° C. in a humidified atmosphere of 5% CO2 (v/v) in air. All of the experiments involving cells were performed on cells in the exponential growth phase.
The cytotoxicity of polycurcumins was determined using the standard 3-(4,5-dimethylthiazolyl-2)-2,5-diphenyltetrazolium bromide (MTT) cell proliferation kit (ATCC, Manassas, Va.) according to manufacturer's protocol. In brief, SKOV-3 cells were seeded onto 96-well plates with a density of 15,000 cells per well and incubated at 37° C. in a humidified atmosphere of 95% air and 5% CO2 for 16 h. The medium in each well was replaced with 200 μL of culture medium containing the treatments and cultured for 72 h. The medium in each well was then replaced with fresh media and the cells were incubated for another 24 h. The incubation medium was then replaced with 100 μL of fresh medium and 10 μL of MIT reagent. After 6 h, 100 μL of detergent reagent was added to each well and incubated for 18 h at room temperature in the dark until all the crystals dissolved. The absorbance intensity at 570 nm was recorded on a Bio-Rad (model 550) microplate reader. Cell viability is defined as the percent live cells compared with untreated controls.
For each polycurcumin tested, the commoners such as 3,3′-dithiodipropionic acid, pyromellitic dianhydride, tri(ethylene glycol) divinyl ether and PEG, were used as controls.

[2] = cited from earlier work
[3] = system: DU145 prostate carcinoma, A549 lung carcinoma, and HT29 colon carcinoma; details: read-out: IC50 (50% inhibitory concentration); variety of cancer cell lines; cited from earlier work
[4] = PBS at pH 7.2; cited from earlier work

**Q.** Which “cytotoxicity of comonomer controls against SKOV-3 cells” value (“cytotoxicity of comonomer controls” for short) [1] does the source give for `O=C(O)CCSSCCC(=O)O` [3,3′-dithiodipropionic acid] here?
**A.** Its value is “no significant cytotoxicity”.

**Q.** For `COc1cc(C=CC(=O)CC(=O)C=Cc2ccc(O)c(OC)c2)ccc1O` [Curcumin, 1,7-bis-(4-hydroxy-3-methoxyphenyl)-hepta-1,6-diene-3,5-dione], which IC50 ([1]; SK-OV-3, read-out: IC50, curcumin equivalent dose) is on record?
**A.** Its IC50 is 21 µM.

**Q.** What about the IC50 ([1]; SK-OV-3, read-out: IC50-C (IC50 in terms of curcumin-equivalent dose)) of the same compound?
**A.** The IC50 was 7.8 µg/mL.

**Q.** And the “solubility of free curcumin in water, in words” value [2]?
**A.** The value was “almost insoluble in water; also recorded: practically insoluble in water”.

**Q.** What about the IC50 [3] of the same compound?
**A.** Its IC50 is 10 to 75 µM.

**Q.** And the “half life (t1/2)” value [4]?
**A.** Its value is “less than 10 min”.

**Q.** Which “cytotoxicity of comonomer controls” value [1] does the source give for `O=c1oc(=O)c2cc3c(=O)oc(=O)c3cc12` [pyromellitic dianhydride] here?
**A.** The value was “no significant cytotoxicity”.

**Q.** For `C=COCCOCCOCCOC=C` [tri(ethylene glycol) divinyl ether], which “cytotoxicity of comonomer controls” value ([1]; SKOV-3, MTT, comonomers as controls) is on record?
**A.** The value was “no significant cytotoxicity”.

**Q.** For polyethylene glycol [PEG], which “cytotoxicity of comonomer controls” value [1] is on record?
**A.** The value was “no significant cytotoxicity”.
